Measurements: PubChem BioAssay AID1963965 (Molecular Pharmacology Branch, DTP, NCI, 2024)

Tested on: 996289-038-R-J1-PDC spheroid viability
Assay: Anticancer human tumor 996289-038-R-J1-PDC patient-derived colon adenocarcinoma cell line growth inhibition [PI3K]
Details: spheroids with HUVEC and MSC; for viability, T/C: stronger effect = lower value
Outline: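 Tumor cells were combined with HUVEC and MSCs into spheroids, then dosed with PI3K-inhibitor combinations over half-log ranges capped near clinical Cmax or 10 microM.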

[1] = curve of first compound, second compound 0.00316 µM
[2] = curve of first compound, second compound 0.01 µM
[3] = curve of first compound, second compound 0.0316 µM
[4] = curve of first compound, second compound 0.1 µM
[5] = curve of first compound, second compound 0.316 µM
[6] = curve of first compound, second compound 1 µM
[7] = second compound 0.00316 µM, first compound 0.0316 µM
[8] = second compound 0.00316 µM, first compound 0.1 µM
[9] = second compound 0.00316 µM, first compound 0.316 µM
[10] = second compound 0.00316 µM, first compound 1 µM
[11] = second compound 0.00316 µM, first compound 3.16 µM
[12] = second compound 0.00316 µM, first compound 10 µM
[13] = second compound 0.01 µM, first compound 0.0316 µM
[14] = second compound 0.01 µM, first compound 0.1 µM
[15] = second compound 0.01 µM, first compound 0.316 µM
[16] = second compound 0.01 µM, first compound 1 µM
[17] = second compound 0.01 µM, first compound 3.16 µM
[18] = second compound 0.01 µM, first compound 10 µM
[19] = second compound 0.0316 µM, first compound 0.0316 µM
[20] = second compound 0.0316 µM, first compound 0.1 µM
[21] = second compound 0.0316 µM, first compound 0.316 µM
[22] = second compound 0.0316 µM, first compound 1 µM
[23] = second compound 0.0316 µM, first compound 3.16 µM
[24] = second compound 0.0316 µM, first compound 10 µM
[25] = second compound 0.1 µM, first compound 0.0316 µM
[26] = second compound 0.1 µM, first compound 0.1 µM
[27] = second compound 0.1 µM, first compound 0.316 µM
[28] = second compound 0.1 µM, first compound 1 µM
[29] = second compound 0.1 µM, first compound 3.16 µM
[30] = second compound 0.1 µM, first compound 10 µM
[31] = second compound 0.316 µM, first compound 0.0316 µM
[32] = second compound 0.316 µM, first compound 0.1 µM
[33] = second compound 0.316 µM, first compound 0.316 µM
[34] = second compound 0.316 µM, first compound 1 µM
[35] = second compound 0.316 µM, first compound 3.16 µM
[36] = second compound 0.316 µM, first compound 10 µM
[37] = second compound 1 µM, first compound 0.0316 µM
[38] = second compound 1 µM, first compound 0.1 µM
[39] = second compound 1 µM, first compound 0.316 µM
[40] = second compound 1 µM, first compound 1 µM
[41] = second compound 1 µM, first compound 3.16 µM
[42] = second compound 1 µM, first compound 10 µM
[43] = curve of first compound, second compound 3.16 µM
[44] = curve of first compound, second compound 10 µM
[45] = second compound 3.16 µM, first compound 0.0316 µM
[46] = second compound 3.16 µM, first compound 0.1 µM
[47] = second compound 3.16 µM, first compound 0.316 µM
[48] = second compound 3.16 µM, first compound 1 µM
[49] = second compound 3.16 µM, first compound 3.16 µM
[50] = second compound 3.16 µM, first compound 10 µM
[51] = second compound 10 µM, first compound 0.0316 µM
[52] = second compound 10 µM, first compound 0.1 µM
[53] = second compound 10 µM, first compound 0.316 µM
[54] = second compound 10 µM, first compound 1 µM
[55] = second compound 10 µM, first compound 3.16 µM
[56] = second compound 10 µM, first compound 10 µM
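Note: spheroids exposed to compounds for seven days before viability read.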
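Throughout, for viability, T/C: luminescence used as a proxy for viable cell amount; percent viability relative to DMSO vehicle control as 100%.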

CNC(=O)c1ccc(N2C(=S)N(c3ccc(C#N)c(C(F)(F)F)c3)C(=O)C2(C)C)cc1F + COc1c(OCCCN2CCOCC2)ccc2c3n(c(=NC(=O)c4cnc(N)nc4)nc12)CCN3
IC50 [1]: > 10 µM | IC50 [2]: > 10 µM | IC50 [3]: > 10 µM | IC50 [4]: > 10 µM | IC50 [5]: < 0.0316 µM | IC50 [6]: < 0.0316 µM | viability, T/C [7]: 103% | viability, T/C [8]: 92.2% | viability, T/C [9]: 93.2% | viability, T/C [10]: 106% | viability, T/C [11]: 99.4% | viability, T/C [12]: 125% | viability, T/C [13]: 98% | viability, T/C [14]: 89.8% | viability, T/C [15]: 103% | viability, T/C [16]: 88.9% | viability, T/C [17]: 87% | viability, T/C [18]: 106% | viability, T/C [19]: 82.5% | viability, T/C [20]: 78% | viability, T/C [21]: 81% | viability, T/C [22]: 67.5% | viability, T/C [23]: 89.4% | viability, T/C [24]: 92.4% | viability, T/C [25]: 66.5% | viability, T/C [26]: 66.2% | viability, T/C [27]: 64.8% | viability, T/C [28]: 67.7% | viability, T/C [29]: 58.7% | viability, T/C [30]: 65.9% | viability, T/C [31]: 40.1% | viability, T/C [32]: 33.2% | viability, T/C [33]: 34.5% | viability, T/C [34]: 39.8% | viability, T/C [35]: 40.3% | viability, T/C [36]: 27.6% | viability, T/C [37]: 21.8% | viability, T/C [38]: 19.9% | viability, T/C [39]: 18% | viability, T/C [40]: 20.1% | viability, T/C [41]: 19.1% | viability, T/C [42]: 13.8%

CC(Nc1ccc2c(c1)OCCn1cc(N3C(=O)OCC3C(F)F)nc1-2)C(N)=O (centres undefined)
viability, T/C (compound 0.00316 µM): 105% [middle of 8 runs] | viability, T/C (compound 0.0316 µM): 95.4% [middle of 8 runs] | viability, T/C (compound 0.1 µM): 90.3% [middle of 8 runs] | viability, T/C (compound 0.316 µM): 80% [middle of 8 runs] | viability, T/C (compound 1 µM): 67.5% [middle of 8 runs] | IC50 (compound alone, run of 06/12/2023): > 1 µM

C[C@@H](NC(=O)c1ncnc(N)c1Cl)c1ncc(C(=O)Nc2cc(C(F)(F)F)c(Cl)cn2)s1 + CC(Nc1ccc2c(c1)OCCn1cc(N3C(=O)OCC3C(F)F)nc1-2)C(N)=O
IC50 [1]: > 10 µM | IC50 [2]: > 10 µM | IC50 [3]: > 10 µM | IC50 [4]: > 10 µM | IC50 [5]: > 10 µM | IC50 [6]: > 10 µM | viability, T/C [7]: 115% | viability, T/C [8]: 124% | viability, T/C [9]: 129% | viability, T/C [10]: 123% | viability, T/C [11]: 135% | viability, T/C [12]: 122% | viability, T/C [13]: 119% | viability, T/C [14]: 124% | viability, T/C [15]: 107% | viability, T/C [16]: 139% | viability, T/C [17]: 140% | viability, T/C [18]: 122% | viability, T/C [19]: 116% | viability, T/C [20]: 103% | viability, T/C [21]: 111% | viability, T/C [22]: 120% | viability, T/C [23]: 128% | viability, T/C [24]: 111% | viability, T/C [25]: 93.7% | viability, T/C [26]: 93.1% | viability, T/C [27]: 91.7% | viability, T/C [28]: 119% | viability, T/C [29]: 107% | viability, T/C [30]: 110% | viability, T/C [31]: 70% | viability, T/C [32]: 87.6% | viability, T/C [33]: 87.2% | viability, T/C [34]: 105% | viability, T/C [35]: 109% | viability, T/C [36]: 83.3% | viability, T/C [37]: 68% | viability, T/C [38]: 78.1% | viability, T/C [39]: 57.8% | viability, T/C [40]: 81.9% | viability, T/C [41]: 85.6% | viability, T/C [42]: 65.3%

CC1(C)CCC(Nc2ncc(C(F)(F)F)c(-c3c[nH]c4c(P(C)(C)=O)c(C#N)ccc34)n2)CN1 (centres undefined) + Cc1nc(NC(=O)N2CCCC2C(N)=O)sc1-c1ccnc(C(C)(C)C(F)(F)F)c1
IC50 [3]: 6.45 µM | IC50 [4]: 6.7 µM | IC50 [5]: 5.83 µM | IC50 [6]: 4.92 µM | IC50 [43]: 3.62 µM | IC50 [44]: < 0.0316 µM | viability, T/C [19]: 103% | viability, T/C [20]: 86.8% | viability, T/C [21]: 75.6% | viability, T/C [22]: 90.1% | viability, T/C [23]: 92.2% | viability, T/C [24]: 25.6% | viability, T/C [25]: 89.9% | viability, T/C [26]: 74.1% | viability, T/C [27]: 88.2% | viability, T/C [28]: 85% | viability, T/C [29]: 91.3% | viability, T/C [30]: 30.8% | viability, T/C [31]: 75.5% | viability, T/C [32]: 78% | viability, T/C [33]: 85.8% | viability, T/C [34]: 79% | viability, T/C [35]: 80.2% | viability, T/C [36]: 24% | viability, T/C [37]: 75% | viability, T/C [38]: 70% | viability, T/C [39]: 70.8% | viability, T/C [40]: 69.7% | viability, T/C [41]: 68.1% | viability, T/C [42]: 21.4% | viability, T/C [45]: 62.5% | viability, T/C [46]: 57.9% | viability, T/C [47]: 55.9% | viability, T/C [48]: 58.7% | viability, T/C [49]: 55% | viability, T/C [50]: 13.1% | viability, T/C [51]: 41.9% | viability, T/C [52]: 46% | viability, T/C [53]: 41.7% | viability, T/C [54]: 38.8% | viability, T/C [55]: 36.9% | viability, T/C [56]: 10.2%

Cn1ncc(Cl)c1-c1cc(C(=O)NC(CN)Cc2cccc(F)c2)sc1Cl (centres undefined) + CC(Nc1ncnc2nc[nH]c12)c1cc2cccc(Cl)c2c(=O)n1-c1ccccc1
IC50 [3]: > 10 µM | IC50 [4]: > 10 µM | IC50 [5]: > 10 µM | IC50 [6]: 9.38 µM | IC50 [43]: 7.97 µM | IC50 [44]: 5.1 µM | viability, T/C [19]: 92.2% | viability, T/C [20]: 92.1% | viability, T/C [21]: 81.2% | viability, T/C [22]: 71.6% | viability, T/C [23]: 70.6% | viability, T/C [24]: 61.2% | viability, T/C [25]: 102% | viability, T/C [26]: 88.5% | viability, T/C [27]: 83.5% | viability, T/C [28]: 73.9% | viability, T/C [29]: 69.1% | viability, T/C [30]: 54.2% | viability, T/C [31]: 102% | viability, T/C [32]: 98.8% | viability, T/C [33]: 85.2% | viability, T/C [34]: 73.3% | viability, T/C [35]: 69.7% | viability, T/C [36]: 49.3% | viability, T/C [37]: 108% | viability, T/C [38]: 97.5% | viability, T/C [39]: 90.2% | viability, T/C [40]: 91.7% | viability, T/C [41]: 71.2% | viability, T/C [42]: 48.3% | viability, T/C [45]: 85.6% | viability, T/C [46]: 94% | viability, T/C [47]: 88.6% | viability, T/C [48]: 85% | viability, T/C [49]: 67.6% | viability, T/C [50]: 45.7% | viability, T/C [51]: 84.1% | viability, T/C [52]: 91.2% | viability, T/C [53]: 92% | viability, T/C [54]: 79% | viability, T/C [55]: 58.1% | viability, T/C [56]: 39.2%
